US20010047017A1, “Azole derivatives” (priority 2000, published 2001)
In brackets after ≈: the same amount, converted by molar mass.

Assays:
Test in all cases: In vitro antifungal activity (IC80), broth micro-dilution
Assay type in all cases: cell-based
[1] = system: Absidia corymbifera (CF1001); settings: Lichtheimia corymbifera; 80% inhibitory concentration; YNB medium solidified with 0.2% low melting point agarose; 1-2 days at 35° C.; read-out: In vitro antifungal activity (IC80) A. cormybifera (CF1001)
Experimental: (§1) In vitro antifungal activities of 1-(1H-1,2,4-triazol-1-yl)butan-2-ol derivatives of the formula (I) of the present invention were evaluated by determining the 80% inhibitory concentration (IC80), which was calculated as the lowest concentration of an antifungal to inhibit the growth of fungus to 20% turbidity compared with the drug-free control growth spectrophotometrically. The IC80 values were determined by the broth micro-dilution procedure based on NCCLS Approved Standard with the following minor modifications:
(§2) National Committee for Clinical Laboratory Standards. (1997) Reference method for broth dilution antifungal susceptibility testing for yeasts. Approved standard.
(§3) Yeast Nitrogen Base (YNB; Difco Lab.) supplemented with 1% glucose and 0.25% K2HPO4 was used as testing medium for yeast, the same medium solidified with 0.2% low melting point agarose (BRL) was used for filamentous fungi. Inoculum size was 1-3×10^4 cells/ml, and incubation was performed for 1-2 days at 35° C.
(§4) The inhibitory activity of 1-(1H-1,2,4-triazol-1-yl)butan-2-ol derivatives of the formula (I) against in vitro growth of Candida albicans, Aspergillus fumigatus, Rhizopus oryzea, and Absidia corymbifera is summarized in Table 1 comparing with 2-(2,4-difluorophenyl)-1,3-bis(1H-1,2,4-triazol-1-ylmethyl)propan-2-ol (Fluconazole; Pfizer).

[2] = system: Aspergillus fumigatus (437); settings: 80% inhibitory concentration, YNB medium solidified with 0.2% low melting point agarose, 1-2 days at 35° C.
Experimental: as §1, §2, §3, §4

[3] = system: Candida albicans (CY1002); settings: 80% inhibitory concentration, YNB medium with 1% glucose and 0.25% K2HPO4, 1-2 days at 35° C.
Experimental: as §1, §2, §3, §4

[4] = system: Rhizopus oryzea (CFF1118); settings: 80% inhibitory concentration, YNB medium solidified with 0.2% low melting point agarose, 1-2 days at 35° C., read-out: In vitro antifungal activity (IC80) R. oryzea (CFF1118)
Experimental: as §1, §2, §3, §4

Work on CCc1nc(-c2ccc(-c3csc([C@H](C)[C@](O)(Cn4cncn4)c4ccc(F)cc4F)n3)cc2)ns1 [Example 19, (2R,3R)-2-(2,4-Difluorophenyl)-3-(4-{4-[5-ethyl-(1,2,4-thiadiazol-3-yl) ]phenyl}thiazol-2-yl)-1-(1H-1,2,4-triazol-1-yl)butan-2-ol] yielded an IC80 [1] of 0.25 µg/mL (≈ 0.477 µM), an IC80 [2] of 0.3 µg/mL (≈ 0.572 µM) and an IC80 [3] of 0.016 µg/mL (≈ 0.0305 µM). For the same molecule, the IC80 [4] was 0.044 µg/mL (≈ 0.0839 µM).

C[C@@H](c1nc(-c2ccc(-c3csnn3)cc2)ns1)[C@](O)(Cn1cncn1)c1ccc(F)cc1F [Example 1, (2R,3R)-2-(2,4-Difluorophenyl)-3-{3-[4-(1,2,3-thiadiazol-4-yl)phenyl]-1,2,4-thiadiazol-5-yl}-1-(1H-1,2,4-triazol-1-yl)butan-2-ol] showed an IC80 [1] of 0.0057 µg/mL (≈ 0.0115 µM), an IC80 [2] of 0.11 µg/mL (≈ 0.221 µM) and an IC80 [3] of 0.00093 µg/mL (≈ 0.00187 µM). For the same molecule, the IC80 [4] was 0.0023 µg/mL (≈ 0.00462 µM).

In the case of C[C@@H](c1nc(-c2ccc(-c3nccs3)cc2)cs1)[C@](O)(Cn1cncn1)c1ccc(F)cc1F [Example 5, (2R,3R)-2-(2,4-Difluorophenyl)-3-{4-[4-(thiazol-2-yl)phenyl]thiazol-2-yl}-1-(1H-1,2,4-triazol-1-yl)butan-2-ol], the IC80 [1] is reported as 0.3 µg/mL (≈ 0.605 µM), the IC80 [2] is reported as 0.35 µg/mL (≈ 0.706 µM) and the IC80 [3] is reported as 0.0059 µg/mL (≈ 0.0119 µM). The IC80 [4] was 0.0047 µg/mL (≈ 0.00948 µM).

Molecule C[C@@H](c1nc(-c2ccc(-c3csnn3)cc2)cs1)[C@](O)(Cn1cncn1)c1cc(F)ccc1F [Example 4, (2R,3R)-2-(2,5-Difluorophenyl)-3-{4-[4-(1,2,3-thiadiazol-4-yl)phenyl]thiazol-2-yl}-1-(1H-1,2,4-triazol-1-yl)butan-2-ol] has an IC80 [1] of 0.017 µg/mL (≈ 0.0342 µM), an IC80 [2] of 0.17 µg/mL (≈ 0.342 µM) and an IC80 [3] of 0.011 µg/mL (≈ 0.0222 µM). For the same molecule, the IC80 [4] was 0.0028 µg/mL (≈ 0.00564 µM).

With Cc1csc(-c2ccc(-c3csc([C@H](C)[C@](O)(Cn4cncn4)c4ccc(F)cc4F)n3)cc2)n1 [Example 6, (2R,3R)-2-(2,4-Difluorophenyl)-3-{4-[4-(4-methylthiazol-2-yl)phenyl]thiazol-2-yl}-1-(1H-1,2,4-triazol-1-yl)butan-2-ol] the IC80 [1] was 0.33 µg/mL (≈ 0.648 µM), the IC80 [2] was 0.67 µg/mL (≈ 1.31 µM) and the IC80 [3] was 0.021 µg/mL (≈ 0.0412 µM). For the same molecule, the IC80 [4] was 0.095 µg/mL (≈ 0.186 µM).

With C[C@@H](c1nc(-c2ccc(-c3csnn3)cc2)cs1)[C@](O)(Cn1cncn1)c1ccc(F)cc1F [Example 3, (2R,3R)-2-(2,4-Difluorophenyl)-3-{4-[4-(1,2,3-thiadiazol-4-yl)phenyl]thiazol-2-yl}-1-(1H-1,2,4-triazol-1-yl)butan-2-ol] the IC80 [1] was 0.024 µg/mL (≈ 0.0483 µM), the IC80 [2] was 0.14 µg/mL (≈ 0.282 µM) and the IC80 [3] was 0.011 µg/mL (≈ 0.0222 µM). For the same molecule, the IC80 [4] was 0.0029 µg/mL (≈ 0.00584 µM).

CCOC(=O)c1csc(-c2ccc(-c3csc([C@H](C)[C@](O)(Cn4cncn4)c4ccc(F)cc4F)n3)cc2)n1 [Example 9, 2-(4-{2-[(1R,2R)-2-(2,4-Difluorophenyl)-2-hydroxy-1-methyl-3-(1H-1,2,4-triazol-1-yl)propyl]thiazol-4-yl}phenyl)thiazole-4-carboxylic acid ethyl ester] showed an IC80 [1] of 0.17 µg/mL (≈ 0.299 µM), an IC80 [2] of 0.5 µg/mL (≈ 0.881 µM) and an IC80 [3] of 0.022 µg/mL (≈ 0.0388 µM). It also gave an IC80 [4] of 0.036 µg/mL (≈ 0.0634 µM).

Work on CCc1csc(-c2ccc(-c3csc([C@H](C)[C@](O)(Cn4cncn4)c4ccc(F)cc4F)n3)cc2)n1 [Example 7, (2R,3R)-2-(2,4-Difluorophenyl)-3-{4-[4-(4-ethylthiazol-2-yl)phenyl]thiazol-2-yl}-1-(1H-1,2,4-triazol-1-yl)butan-2-ol] yielded an IC80 [1] of 0.34 µg/mL (≈ 0.649 µM), an IC80 [2] of 0.39 µg/mL (≈ 0.745 µM) and an IC80 [3] of 0.024 µg/mL (≈ 0.0458 µM). It also gave an IC80 [4] of 0.069 µg/mL (≈ 0.132 µM).

C[C@@H](c1nc(-c2ccc(-c3csnn3)cc2)ns1)[C@](O)(Cn1cncn1)c1cc(F)ccc1F [Example 2, (2R,3R)-2-(2,5-Difluorophenyl)-3-{3-[4-(1,2,3-thiadiazol-4-yl)phenyl]-1,2,4-thiadiazol-5-yl}-1-(1H-1,2,4-triazol-1-yl)butan-2-ol] was tested, and the IC80 [1] was 0.047 µg/mL (≈ 0.0945 µM), the IC80 [2] was 0.036 µg/mL (≈ 0.0724 µM) and the IC80 [3] was 0.0014 µg/mL (≈ 0.00281 µM). For the same molecule, the IC80 [4] was 0.011 µg/mL (≈ 0.0221 µM).

Cc1nc(-c2ccc(-c3csc([C@H](C)[C@](O)(Cn4cncn4)c4ccc(F)cc4F)n3)cc2)ns1 [Example 18, (2R,3R)-2-(2,4-Difluorophenyl)-3-(4-{4-[5-methyl-(1,2,4-thiadiazol-3-yl)]phenyl}thiazol-2-yl)-1-(1H-1,2,4-triazol-1-yl)butan-2-ol] showed an IC80 [1] of 0.19 µg/mL (≈ 0.372 µM), an IC80 [2] of 0.28 µg/mL (≈ 0.548 µM) and an IC80 [3] of 0.0031 µg/mL (≈ 0.00607 µM). For the same molecule, the IC80 [4] was 0.046 µg/mL (≈ 0.0901 µM).
